Where “and” joins values, the source holds several entries; their conditions need not be identical. Identical values can stand only once.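 In this assay, cells in 96-well plates receive the compound at five concentrations for 48 hours. Endpoints are linearly interpolated between the surrounding concentrations. GI50 = concentration required for 50% inhibition of growth. Definition used: TGI = concentration required for complete inhibition of growth.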

The first assay relates to CAKI-1 renal. Kind of assay: NCI anticancer screen, dose series, 48 h.
For the compound `COc1ccc2c(c1)C(C)Cc1c(ncnc1-n1c(C)nc3ccccc31)N2C` (stereo unspecified), the GI50 was 4.48 µM and the TGI was 78.8 µM.
`COc1ccc2[nH]c3c4c(ccc3c2c1)C(=O)C=CC4=O` gave a TGI of 14.4 µM.
On the same count and under the same terms, in the case of `COc1cc2c(cc1O)C1Cc3ccc(OC)c(O)c3C(C2)N1C` (stereo unspecified) it was over 100 µM.
With `CCOC(=O)CNC(=O)c1ccccc1Nc1ccnc(C(F)(F)F)c1`, the GI50 is 20.9 µM and the TGI is over 62.5 µM.
`COc1ccc2c(c1)[C@@]13CCCC[C@H]1[C@@H](C2)N(C)CC3=O` showed a TGI of over 100 µM.
Regarding `COc1cccc(/C(COc2ccc3c(c2)oc(=O)c2cc(OC)ccc23)=N/O)c1`, the GI50 was 6.7 µM and the TGI was over 100 µM.
On to `N=C(N)SCc1cccc(-c2nc3ccccc3c(=O)o2)c1`, for which the TGI is over 100 µM.
In the case of `COc1cc2c(c(OC)n1)[C@]1(O)[C@H](O)[C@H](CN(C)C)[C@@H](c3ccccc3)[C@]1(c1ccc(C#N)cc1)O2`, the GI50 is 0.0276 µM and 0.0178 µM; the TGI was 1.68 µM and 4.38 µM.
In turn, `C=CCSS/C=C/CS(=O)CC=C` (stereo unspecified) gave a TGI of over 62.7 µM.
For the compound `Oc1cn(-c2ccc(Cl)cc2)nc1-c1n[nH]c(=S)n1C1CCCCC1`, the GI50 is 0.389 µM and the TGI was over 100 µM.
As to `COc1ccc(Nc2c3ccccc3nc3occ(Cl)c23)cc1`, the GI50 was under 0.01 µM and the TGI came to 16.3 µM.
Regarding `O=C(/C=C/c1cc(CN2CCOCC2)c(O)c2ncccc12)c1cc(CN2CCOCC2)c(O)c2ncccc12`, the GI50 is 0.0842 µM and the TGI is over 100 µM.
For `[Au+].[Au+].[Au+].[c-]1nccn1Cc1ccccc1.[c-]1nccn1Cc1ccccc1.[c-]1nccn1Cc1ccccc1`, in that order: 11.2 µM and 25.9 µM.
For `Cn1cc(C2=C(c3cn(CCCCCN)c4ccccc34)C(=O)NC2=O)c2ccccc21`, in that order: 8.25 µM and over 25 µM.
The like results for `Cc1cc[c-]cc1.Fc1c[c-]c(-c2ccccn2)c(F)c1.[Pt+2].c1ccc(P(C[PH+](c2ccccc2)c2ccccc2)c2ccccc2)cc1` were, in that order, 2.43 µM and 9.03 µM.
Regarding `COc1cc2ncn(-c3cc(OCCc4ccccc4)c(C(N)=O)s3)c2cc1OC`, the GI50 was over 25 µM and the TGI was over 25 µM.
`CCCCC1(CN2CCOCC2)S/C(=N/c2nc(CC(=O)OCC)cs2)NC1=O` (stereo unspecified): the GI50 was 29.9 µM and the TGI is over 100 µM.

The next assay has as its system HOP-62 NSCLC. Kind of assay: NCI anticancer screen, dose series, 48 h.
As to `COc1ccc2c(c1)C(C)Cc1c(ncnc1-n1c(C)nc3ccccc31)N2C` (stereo unspecified), the GI50 is 4.23 µM and the TGI was 24.6 µM.
Compound `COc1ccc2[nH]c3c4c(ccc3c2c1)C(=O)C=CC4=O` yielded a TGI of over 94.4 µM.
The same measure, in the same setting: next, `COc1cc2c(cc1O)C1Cc3ccc(OC)c(O)c3C(C2)N1C` (stereo unspecified): over 100 µM.
In the case of `CCOC(=O)CNC(=O)c1ccccc1Nc1ccnc(C(F)(F)F)c1`, the GI50 was 39.6 µM and the TGI was over 69.6 µM.
In turn, `COc1ccc2c(c1)[C@@]13CCCC[C@H]1[C@@H](C2)N(C)CC3=O` returned a TGI of over 100 µM.
As for `COc1cccc(/C(COc2ccc3c(c2)oc(=O)c2cc(OC)ccc23)=N/O)c1`, the GI50 is 6.9 µM and the TGI is over 100 µM.
`N=C(N)SCc1cccc(-c2nc3ccccc3c(=O)o2)c1` came in with a TGI of over 100 µM.
With `COc1cc2c(c(OC)n1)[C@]1(O)[C@H](O)[C@H](CN(C)C)[C@@H](c3ccccc3)[C@]1(c1ccc(C#N)cc1)O2`, the GI50 was < 0.0151 µM and 0.0102 µM; the TGI is 3.52 µM and 0.565 µM.
Compound `C=CCSS/C=C/CS(=O)CC=C` (stereo unspecified) displayed a TGI of over 100 µM.
In the case of `Oc1cn(-c2ccc(Cl)cc2)nc1-c1n[nH]c(=S)n1C1CCCCC1`, the GI50 is 1.67 µM and the TGI is over 100 µM.
As for `COc1ccc(Nc2c3ccccc3nc3occ(Cl)c23)cc1`, the GI50 was under 0.0156 µM and the TGI was determined as 19.1 µM.
For `O=C(/C=C/c1cc(CN2CCOCC2)c(O)c2ncccc12)c1cc(CN2CCOCC2)c(O)c2ncccc12`, in that order: 0.0335 µM and over 39 µM.
The like results for `[Au+].[Au+].[Au+].[c-]1nccn1Cc1ccccc1.[c-]1nccn1Cc1ccccc1.[c-]1nccn1Cc1ccccc1` were, in that order, 5.99 µM and 28.5 µM.
Take `Cn1cc(C2=C(c3cn(CCCCCN)c4ccccc34)C(=O)NC2=O)c2ccccc21`: the GI50 is 15.2 µM and the TGI is over 25 µM.
For `Cc1cc[c-]cc1.Fc1c[c-]c(-c2ccccn2)c(F)c1.[Pt+2].c1ccc(P(C[PH+](c2ccccc2)c2ccccc2)c2ccccc2)cc1`, in that order: 2.84 µM and 10.7 µM.
For `COc1cc2ncn(-c3cc(OCCc4ccccc4)c(C(N)=O)s3)c2cc1OC`, in that order: over 25 µM and over 25 µM.
For `CCCCC1(CN2CCOCC2)S/C(=N/c2nc(CC(=O)OCC)cs2)NC1=O` (stereo unspecified), in that order: 44.7 µM and over 100 µM.

Another assay concerns HS 578T breast. Kind of assay: NCI anticancer screen, dose series, 48 h.
On to `COc1ccc2c(c1)C(C)Cc1c(ncnc1-n1c(C)nc3ccccc31)N2C` (stereo unspecified), for which the GI50 is 4.12 µM and the TGI was 25.3 µM.
Take `COc1ccc2[nH]c3c4c(ccc3c2c1)C(=O)C=CC4=O`: the TGI was determined as 71.5 µM.
Same read-out and setting: next, `COc1cc2c(cc1O)C1Cc3ccc(OC)c(O)c3C(C2)N1C` (stereo unspecified): over 100 µM.
On to `CCOC(=O)CNC(=O)c1ccccc1Nc1ccnc(C(F)(F)F)c1`, for which the GI50 is 45.5 µM and the TGI is over 100 µM.
On to `COc1ccc2c(c1)[C@@]13CCCC[C@H]1[C@@H](C2)N(C)CC3=O`, for which the TGI was found to be 66.6 µM.
On to `COc1cccc(/C(COc2ccc3c(c2)oc(=O)c2cc(OC)ccc23)=N/O)c1`, for which the GI50 is 14.5 µM and the TGI is over 100 µM.
`N=C(N)SCc1cccc(-c2nc3ccccc3c(=O)o2)c1`: the TGI is over 100 µM.
Turning to `COc1cc2c(c(OC)n1)[C@]1(O)[C@H](O)[C@H](CN(C)C)[C@@H](c3ccccc3)[C@]1(c1ccc(C#N)cc1)O2`, the GI50 was 0.0402 µM and 0.0367 µM; the TGI was 1.97 µM and 1.16 µM.
Turning to `C=CCSS/C=C/CS(=O)CC=C` (stereo unspecified), the TGI was over 77.4 µM.

Values taken from PubChem BioAssay (NCI).
